Experimental data taken from patent publication US4285964A, “Salts of (+)-catechine, their preparation and use, and compositions containing these salts” (Continental Pharma, priority 1979, dated 1981).
Structures can show the parent of a compound that is named as a salt. Where two headings read alike, the source gives them in different places.

Assays:
[1] = volume of water per 1 g of (+)-catechin; cited from earlier work
[2] = solubility of double salts in the presence of 2% of benzyl alcohol; format: physicochemical; conditions: salts formed with L-lysine and an acid
Method: These double salts of (+)-catechin are all hydrosoluble but the solubility varies somewhat as a function of the acid used.
Upon cooling, salts precipitate and 1 to 3% of benzyl alcohol are added, advantageously 2%. The solution is reheated to about 45° C. and allowed to cool again, preferably to below 10° C. The double salt then remains in solution.

[3] = pH of solutions of the salts; format: physicochemical

SMILES: Oc1cc(O)c2c(c1)O[C@H](c1ccc(O)c(O)c1)[C@@H](O)C2 [(+)-catechin, trans-2-(3,4-dihydroxyphenyl)-3,4-dihydro-2H-1-benzopyran-3,5,7-triol]
- solubility of (+)-catechin in water [1]: 1100-1200 ml of water

SMILES: Oc1cc(O)c2c(c1)O[C@H](c1ccc(O)c(O)c1)[C@@H](O)C2 [Example 2]
- solubility ([2]; listed as salt formed with L-lysine and hydrochloric acid): above 15 mg of (+)-catechin per ml

SMILES: Oc1cc(O)c2c(c1)O[C@H](c1ccc(O)c(O)c1)[C@@H](O)C2 [Example 6]
- solubility ([2]; water, 2% benzyl alcohol, organic solvent or mixture, read-out: solubility): > 15 mg/mL
- pH of an aqueous concentrated solution [3]: 6.5

SMILES: Oc1cc(O)c2c(c1)O[C@H](c1ccc(O)c(O)c1)[C@@H](O)C2 [salt formed with L-lysine and acetic acid]
- solubility [2]: above 15 mg of (+)-catechin per ml

SMILES: Oc1cc(O)c2c(c1)O[C@H](c1ccc(O)c(O)c1)[C@@H](O)C2 [salt formed with L-lysine and citric acid]
- solubility [2]: 9.5 mg of (+)-catechin per ml

SMILES: Oc1cc(O)c2c(c1)O[C@H](c1ccc(O)c(O)c1)[C@@H](O)C2 [salt formed with L-lysine and glucuronic acid]
- solubility [2]: above 15 mg of (+)-catechin per ml
